# Experimental data taken from US20260069588A1, “VEPDEGESTRANT FOR USE IN TREATING CANCER” (Arvinas Operation, Inc., priority 2022, published 2026).
# How the values were obtained:
# MCF7 cells = experiment: Live-cell imaging proliferation, MCF7; type: cell-based; details: Homo sapiens, 144 h; MCF7, up to 6 days
# Text: Full growth of the cells over this time period is shown by extent of cell confluence with dimethyl sulfoxide (DMSO).
# [1] = MCF7/estradiol xenograft tumor growth inhibition; type: in vivo, mouse; details: in vivo, oral; mouse, 30 mg/kg; read-out: mean AUC0-24
# Method: (§1) The 30 mg/kg dose was associated with a mean AUC0-24 of 5,717 ng·h/mL. The tumor ER levels were reduced by ≥94% at all doses compared to mice administered vehicle only (FIG. 3B).
# (§2) The 30 mg/kg dose was associated with a mean AUC0-24 of 5,717 ng·h/mL.
# MCF7/estradiol xenograft = MCF7/estradiol xenograft tumor growth inhibition; type: in vivo, mouse
# Method: as §1, §2
# SALL4 = biological target: T1, SALL4 (Homo sapiens, UniProt Q9UJQ4); experiment: Cereblon neomorphic substrate degradation, SALL4; type: cell-based
# T1 construct: host or cells: two unnamed cell lines
# T1 sequence (Q96SW2 whole entry partner, species assumed): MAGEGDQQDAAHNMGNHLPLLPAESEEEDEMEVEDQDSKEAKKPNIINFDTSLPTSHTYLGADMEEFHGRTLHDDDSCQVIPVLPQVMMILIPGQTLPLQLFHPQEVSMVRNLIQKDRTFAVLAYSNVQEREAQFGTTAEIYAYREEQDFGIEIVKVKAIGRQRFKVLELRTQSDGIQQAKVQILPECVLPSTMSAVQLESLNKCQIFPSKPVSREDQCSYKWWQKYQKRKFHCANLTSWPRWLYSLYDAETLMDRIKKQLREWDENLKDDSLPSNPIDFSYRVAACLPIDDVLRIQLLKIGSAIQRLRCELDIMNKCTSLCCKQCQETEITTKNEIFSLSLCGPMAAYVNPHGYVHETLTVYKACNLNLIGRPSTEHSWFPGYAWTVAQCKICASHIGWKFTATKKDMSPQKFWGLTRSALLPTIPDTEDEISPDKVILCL
# T1 sequence (Q16531 whole entry partner, species assumed): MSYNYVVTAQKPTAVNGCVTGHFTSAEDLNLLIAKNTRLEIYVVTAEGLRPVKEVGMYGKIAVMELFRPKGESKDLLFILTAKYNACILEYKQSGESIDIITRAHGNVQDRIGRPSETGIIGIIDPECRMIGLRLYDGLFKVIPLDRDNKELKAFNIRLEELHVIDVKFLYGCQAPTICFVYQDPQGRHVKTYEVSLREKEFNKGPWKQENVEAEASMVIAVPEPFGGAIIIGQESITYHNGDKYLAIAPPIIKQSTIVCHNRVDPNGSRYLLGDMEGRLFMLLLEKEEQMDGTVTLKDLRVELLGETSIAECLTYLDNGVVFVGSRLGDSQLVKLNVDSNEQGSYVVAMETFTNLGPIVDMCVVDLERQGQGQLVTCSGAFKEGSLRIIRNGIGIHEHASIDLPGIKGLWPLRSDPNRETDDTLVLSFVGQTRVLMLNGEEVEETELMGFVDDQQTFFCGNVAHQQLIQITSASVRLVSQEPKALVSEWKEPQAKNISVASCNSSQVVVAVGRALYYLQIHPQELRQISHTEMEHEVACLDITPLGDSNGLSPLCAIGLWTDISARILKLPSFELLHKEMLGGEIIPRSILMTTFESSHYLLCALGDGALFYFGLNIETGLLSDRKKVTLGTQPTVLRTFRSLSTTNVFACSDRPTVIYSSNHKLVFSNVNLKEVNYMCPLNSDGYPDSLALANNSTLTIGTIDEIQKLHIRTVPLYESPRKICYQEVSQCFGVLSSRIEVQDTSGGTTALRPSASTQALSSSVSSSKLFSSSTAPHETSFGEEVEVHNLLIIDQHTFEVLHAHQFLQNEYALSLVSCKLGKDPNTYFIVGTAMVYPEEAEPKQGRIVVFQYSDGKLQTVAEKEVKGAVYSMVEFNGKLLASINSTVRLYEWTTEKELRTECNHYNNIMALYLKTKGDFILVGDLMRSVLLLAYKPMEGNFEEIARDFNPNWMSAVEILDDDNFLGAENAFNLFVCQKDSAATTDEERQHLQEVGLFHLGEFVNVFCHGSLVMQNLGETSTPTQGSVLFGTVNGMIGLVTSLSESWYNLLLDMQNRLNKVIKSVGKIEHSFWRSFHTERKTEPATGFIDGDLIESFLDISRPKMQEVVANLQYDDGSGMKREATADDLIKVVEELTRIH
# T1 sequence (Q9UJQ4 whole entry, species assumed): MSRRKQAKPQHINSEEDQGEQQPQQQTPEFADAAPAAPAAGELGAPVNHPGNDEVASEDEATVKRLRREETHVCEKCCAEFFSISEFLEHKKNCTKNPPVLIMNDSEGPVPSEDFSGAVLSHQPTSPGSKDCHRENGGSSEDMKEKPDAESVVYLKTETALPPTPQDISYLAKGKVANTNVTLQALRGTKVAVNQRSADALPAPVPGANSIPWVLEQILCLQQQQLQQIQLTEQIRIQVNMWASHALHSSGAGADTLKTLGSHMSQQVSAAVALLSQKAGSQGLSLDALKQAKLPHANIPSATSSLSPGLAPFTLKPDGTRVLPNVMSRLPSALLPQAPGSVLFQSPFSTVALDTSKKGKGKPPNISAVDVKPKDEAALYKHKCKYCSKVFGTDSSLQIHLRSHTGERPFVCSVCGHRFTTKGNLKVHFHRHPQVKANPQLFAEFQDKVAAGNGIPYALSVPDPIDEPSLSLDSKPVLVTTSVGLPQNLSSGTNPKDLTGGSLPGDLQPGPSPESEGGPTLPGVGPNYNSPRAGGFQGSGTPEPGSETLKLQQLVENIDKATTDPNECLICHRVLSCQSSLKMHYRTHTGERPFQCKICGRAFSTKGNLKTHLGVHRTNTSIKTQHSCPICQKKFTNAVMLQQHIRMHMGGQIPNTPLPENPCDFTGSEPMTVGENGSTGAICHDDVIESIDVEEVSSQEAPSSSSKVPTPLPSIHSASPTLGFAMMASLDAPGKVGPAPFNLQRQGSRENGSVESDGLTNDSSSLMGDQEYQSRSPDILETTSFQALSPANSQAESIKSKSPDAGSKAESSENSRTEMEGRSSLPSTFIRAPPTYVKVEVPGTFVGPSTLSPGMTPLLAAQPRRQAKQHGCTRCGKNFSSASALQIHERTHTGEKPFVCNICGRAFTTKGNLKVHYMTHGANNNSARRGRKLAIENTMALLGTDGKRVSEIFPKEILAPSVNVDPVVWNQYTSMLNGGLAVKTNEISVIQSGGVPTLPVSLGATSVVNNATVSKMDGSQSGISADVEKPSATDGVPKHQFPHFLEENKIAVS
# Text: These drugs bind to cereblon and promote the degradation of novel (neomorphic) substrates.
# ER = biological target: T2, ER (Homo sapiens, UniProt P03372); experiment: Tumor ER levels in MCF7 xenograft; type: in vivo, mouse; parameters: from tissue; host or cells: MCF7/estradiol xenograft tumour in mice; details: all doses (3, 10, 30 mg/kg), study termination
# T2 sequence (P03372 1-595): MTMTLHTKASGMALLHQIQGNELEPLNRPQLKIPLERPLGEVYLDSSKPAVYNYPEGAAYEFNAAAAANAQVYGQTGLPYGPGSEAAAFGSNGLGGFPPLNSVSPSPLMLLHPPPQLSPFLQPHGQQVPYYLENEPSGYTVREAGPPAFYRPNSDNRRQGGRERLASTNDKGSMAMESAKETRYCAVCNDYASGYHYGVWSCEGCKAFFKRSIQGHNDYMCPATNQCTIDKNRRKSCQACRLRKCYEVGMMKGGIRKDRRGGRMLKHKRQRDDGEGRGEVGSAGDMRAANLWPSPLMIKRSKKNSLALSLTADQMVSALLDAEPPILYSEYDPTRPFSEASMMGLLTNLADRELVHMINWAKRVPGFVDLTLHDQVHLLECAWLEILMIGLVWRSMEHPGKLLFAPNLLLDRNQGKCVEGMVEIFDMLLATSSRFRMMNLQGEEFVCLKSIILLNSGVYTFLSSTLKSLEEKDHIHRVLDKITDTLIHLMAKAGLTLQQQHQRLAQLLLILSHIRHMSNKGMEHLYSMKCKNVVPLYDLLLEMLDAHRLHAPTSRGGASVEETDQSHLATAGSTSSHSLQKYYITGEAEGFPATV
# Method: as §1, §2
compound,measurement,setting,value
"O=C1CC[C@H](N2Cc3cc(N4CCN(CC5CCN(c6ccc([C@@H]7c8ccc(O)cc8CC[C@@H]7c7ccccc7)cc6)CC5)CC4)ccc3C2=O)C(=O)N1 [Compound A, (S)-3-(5-(4-((1-(4-((1R,2S)-6-hydroxy-2-phenyl-1,2,3,4-tetrahydronaphthalen-1-yl)phenyl)piperidin-4-yl)methyl)piperazin-1-yl)-1-oxoisoindolin-2-yl)piperidine-2,6-dione]",GI50,MCF7 cells,4 nM
same,AUC(0-t),[1],5720 ng·h/mL
same,TGI,MCF7/estradiol xenograft; 3 mg/kg PO QD 28 days,85%
same,TGI,MCF7/estradiol xenograft; 10 mg/kg PO QD 28 days,98%
same,TGI,MCF7/estradiol xenograft; 30 mg/kg PO QD 28 days,124%
same,degradation of SALL4,SALL4; a different cell line,no SALL4 degradation
same,degradation of SALL4,SALL4; one cell line,some degradation activity
same,tumor ER levels reduced vs vehicle,ER,≥ 94%
